From patent US5153128A, “Heat-resistant β-galactosyltransferase, its production process and its use” (Suntory Limited, priority 1990, dated 1992)

Biological target: T1, heat-resistant β-galactosyltransferase produced by Saccharopolyspora rectivirgula SAM 1400 (Saccharopolyspora rectivirgula, UniProt Q9ZBD1)
T1 construct: about 140 kDa by gel filtration
Assay: Inhibitors: residual activity of the enzyme in the presence of compounds (Table 3)
Format: biochemical
Conditions: enzyme in presence of the compound; compound concentration not given

T1 sequence (Q9ZBD1 entry or part of it, change not shown): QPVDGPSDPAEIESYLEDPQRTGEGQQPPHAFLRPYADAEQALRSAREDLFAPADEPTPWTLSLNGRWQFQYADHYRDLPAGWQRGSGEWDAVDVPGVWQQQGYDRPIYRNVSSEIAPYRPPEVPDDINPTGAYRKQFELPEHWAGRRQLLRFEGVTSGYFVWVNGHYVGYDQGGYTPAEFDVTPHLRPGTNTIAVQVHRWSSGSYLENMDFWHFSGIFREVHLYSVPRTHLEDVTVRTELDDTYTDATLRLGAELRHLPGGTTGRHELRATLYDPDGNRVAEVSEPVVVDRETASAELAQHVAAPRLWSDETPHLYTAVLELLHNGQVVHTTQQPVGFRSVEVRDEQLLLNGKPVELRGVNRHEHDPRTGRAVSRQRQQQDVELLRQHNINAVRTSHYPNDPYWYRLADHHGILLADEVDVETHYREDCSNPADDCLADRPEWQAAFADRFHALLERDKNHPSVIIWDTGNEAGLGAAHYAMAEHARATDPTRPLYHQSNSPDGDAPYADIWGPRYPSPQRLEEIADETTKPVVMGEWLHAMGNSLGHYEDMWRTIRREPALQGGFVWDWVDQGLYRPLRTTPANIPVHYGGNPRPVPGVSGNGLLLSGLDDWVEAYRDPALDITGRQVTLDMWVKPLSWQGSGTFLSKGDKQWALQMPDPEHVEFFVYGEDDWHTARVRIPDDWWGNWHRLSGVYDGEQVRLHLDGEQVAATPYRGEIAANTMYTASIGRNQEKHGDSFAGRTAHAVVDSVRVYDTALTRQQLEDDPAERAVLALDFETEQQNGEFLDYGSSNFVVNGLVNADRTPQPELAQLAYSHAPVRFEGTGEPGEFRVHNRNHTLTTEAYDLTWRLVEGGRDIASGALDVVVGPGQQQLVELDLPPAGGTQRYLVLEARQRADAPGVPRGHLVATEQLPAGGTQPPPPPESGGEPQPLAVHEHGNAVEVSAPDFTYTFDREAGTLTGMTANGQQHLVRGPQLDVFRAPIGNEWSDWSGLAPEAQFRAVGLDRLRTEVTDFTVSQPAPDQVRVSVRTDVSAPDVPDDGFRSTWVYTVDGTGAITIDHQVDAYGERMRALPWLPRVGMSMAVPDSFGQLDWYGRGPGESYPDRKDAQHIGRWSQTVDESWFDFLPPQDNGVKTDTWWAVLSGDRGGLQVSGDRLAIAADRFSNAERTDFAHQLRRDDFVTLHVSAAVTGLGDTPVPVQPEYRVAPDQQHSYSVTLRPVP

Residual activity: 96%
Structure (SMILES): OCCS [2-Mercaptoethanol]
